This note sets out measurements from BindingDB's records for doi:10.1016/s0960-894x(03)00105-7 (University of California Irvine, 2003).

pIC50: −log10 of the molar value.

This assay deals with Serine/threonine-protein phosphatase 2A catalytic subunit alpha. Put plainly: Inhibition of protein phosphatase 2A (PP2A) was determined by standard phosphorylase a inhibition assay.

The term pIC50 denotes −log10 of the IC50, conventionally taken in molar units. A higher pIC50 goes with a low IC50.

As for `CO[C@@H]([C@H](O)CC(=O)[C@@H](C)[C@@H](O)CC[C@@H](C)[C@@H]1O[C@]2(CC[C@@H](C)[C@H](CC[C@H](C)C(C)=O)O2)CC[C@@H]1C)[C@H](OC(=O)CCCP(=O)(O)O)C(C)C` [4-Phosphono-butyric acid (1R,2S,3R,6S,7S,10R)-10-[(2S,3S,6R,8S,9R)-3,9-dimethyl-8-((S)-3-methyl-4-oxo-pentyl)-1,7-dioxa-spiro[5.5]undec-2-yl]-3,7-dihydroxy-1-isopropyl-2-methoxy-6-methyl-5-oxo-undecyl ester], the pIC50 is 3.52.

As for `CO[C@@H]([C@H](O)CC(=O)[C@@H](C)[C@@H](O)CC[C@@H](C)[C@@H]1O[C@]2(CC[C@@H](C)[C@H](CC[C@H](C)C(C)=O)O2)CC[C@@H]1C)[C@H](OC(=O)C[C@](C)(O)C(=O)O)C(C)C` [(S)-2-Hydroxy-2-methyl-succinic acid 4-{(1R,2S,3R,6S,7S,10R)-10-[(2S,3S,6R,8S,9R)-3,9-dimethyl-8-((S)-3-methyl-4-oxo-pentyl)-1,7-dioxa-spiro[5.5]undec-2-yl]-3,7-dihydroxy-1-isopropyl-2-methoxy-6-methyl-5-oxo-undecyl} ester], the pIC50 was 4.54. Compared with the last compound, the pIC50 is 1.02 log units higher.

In turn, `CO[C@@H]([C@H](O)CC(=O)[C@@H](C)[C@@H](O)CC[C@@H](C)[C@@H]1O[C@]2(CC[C@@H](C)[C@H](CC[C@H](C)C(C)=O)O2)CC[C@@H]1C)[C@H](OC(=O)C[C@@H](O)/C=C(\C)C(=O)O)C(C)C` [(E)-(R)-4-Hydroxy-2-methyl-hex-2-enedioic acid 6-{(1R,2S,3R,6S,7S,10R)-10-[(2S,3S,6R,8S,9R)-3,9-dimethyl-8-((S)-3-methyl-4-oxo-pentyl)-1,7-dioxa-spiro[5.5]undec-2-yl]-3,7-dihydroxy-1-isopropyl-2-methoxy-6-methyl-5-oxo-undecyl} ester] had a pIC50 of 5.40. This pIC50 is 0.86 log units higher than that of the compound before.

For the compound `CO[C@@H]([C@H](O)CC(=O)[C@@H](C)[C@@H](O)CC[C@@H](C)[C@@H]1O[C@]2(CC[C@@H](C)[C@H](CC[C@H](C)C(C)=O)O2)CC[C@@H]1C)[C@H](OC(=O)C[C@@](C)(O)C(=O)O)C(C)C` [(R)-2-Hydroxy-2-methyl-succinic acid 4-{(1R,2S,3R,6S,7S,10R)-10-[(2S,3S,6R,8S,9R)-3,9-dimethyl-8-((S)-3-methyl-4-oxo-pentyl)-1,7-dioxa-spiro[5.5]undec-2-yl]-3,7-dihydroxy-1-isopropyl-2-methoxy-6-methyl-5-oxo-undecyl} ester], the pIC50 was 4.00.
